These results are taken from patent US20100160294A1 (Cypress Biosciences, Inc., priority 2008, published 2010).

The nature of series [1]: Example 1: tolerability study of mirtazapine and reboxetine in normal healthy subjects. Type of series: in vivo, human. The note with it: 6 weeks; 15 mg mirtazapine in the evening, 2 mg reboxetine in the morning, or 2 or 4 mg reboxetine + 15 mg mirtazapine. As to the method: (§1) The subjects receive 2 capsules per day, one in the morning and one at bedtime. […] All medications are administered in an over-encapsulated format that ensures blinding of study participants, staff and investigators. All subjects are scheduled to receive a total of 6 weeks of therapy, and are required to return to the clinics after 1, 2, 4 and 6 weeks of therapy. Patients are required to complete paper self-assessments, electronic diary assessments, computer based cognitive testing, as well as vital signs and weight assessments at the clinic visits.

A short description of series [2]: Example 4: tolerability study of mirtazapine and betahistine in normal healthy subjects. Type of series: in vivo, human. Particulars: 6 weeks; 15 mg mirtazapine in the evening, 8 mg betahistine in the morning, or 8 or 16 mg betahistine + 15 mg mirtazapine. As to the method:
as §1

Series [3] concerns 5-HT and NA reuptake sites. Particulars: ratio of Ki for serotonin reuptake to Ki for norepinephrine reuptake; from U.S. Pat. No. 6,642,235; cited from earlier work.
The conditions of series [4]: cited from earlier work.

Turning to `CCOc1ccccc1OC(c1ccccc1)C1CNCCO1` (racemic) [reboxetine, 2-[(2-ethoxyphenoxy)-phenyl-methyl]morpholine], the side effects result is “insomnia, nausea/vomiting, and weight loss” in series [1]; “insomnia, nausea/vomiting, and weight loss” in series [2]. The “norepinephrine reuptake inhibitor selectivity (Ki5HT/KiNA)” value in series [3] is on record as “about 80”.

In the case of `CN(C)CCC=C1c2ccccc2CCc2ccccc21` [amitriptyline], the “appetite increase reported, share of patients” value in series [4] (controlled studies, placebo 2%) is 6%. Besides, the “weight gain of greater than or equal to 7% of body weight, share of patients” value in series [4] (same controlled trials, placebo 0%) was 5.9%.

For (S,S)reboxetine, the “norepinephrine reuptake inhibitor selectivity (Ki5HT/KiNA)” value in series [3] is on record as “about 12,700”.

Consider `CN1CCN2c3ncccc3Cc3ccccc3C2C1` (stereo not drawn) [mirtazapine, 1,2,3,4,10,14b-hexahydro-2-methylpyrazino [2,1-a]pyrido[2,3-c]benzazepine], for which the side effects entry in series [1] is “weight gain, sedation, and cognitive deficits”; in series [2] it was “weight gain, sedation, and cognitive deficits”.

For `CNCCc1ccccn1` [betahistine, 2-[2-(methylamino)ethyl]pyridine], the side effects entry in series [2] is “insomnia, nausea/vomiting, and weight loss”.
